Columns and labels:
[1] = tested on: Xanthomonas campestris pv. campestris; experiment: In vivo preventive test on Xanthomonas campestris pv. campestris (black rot on cabbage); conditions: evaluated 8 or 10 days after inoculation, read-out: efficacy; for pest or weed control at 125 ppm: 125 ppm of active ingredient; for pest or weed control at 31 ppm: 31 ppm of active ingredient
Method: The tested active ingredients were prepared by homogenization in a mixture of acetone/Dimethyl sulfoxide/Tween®, and then diluted with water to obtain the desired active material concentration.
The young plants of cabbage were treated by spraying the active ingredient prepared as described above. Control plants were treated only with an aqueous solution of acetone/Dimethyl sulfoxide/Tween®.
After 72 hours, the plants were contaminated by spraying the leaves with an aqueous bacteria suspension of Xanthomonas campestris pv. campestris. The contaminated cabbage plants were incubated for 8 or 10 days at 27° C. at 95% relative humidity.
The test was evaluated 8 or 10 days after the inoculation. 0% means an efficacy which corresponds to that of the control plants while an efficacy of 100% means that no disease was observed. […]
Compounds CMP1, CMP2, CMP3 and CMP4 were tested in an in vivo preventive test on Xanthomonas campestris pv. campestris (black rot on cabbage) in the same conditions as described in Example H.

[2] = LogP by HPLC on reversed phase columns (EEC directive 79/831 Annex V.A8); assay type: physicochemical; conditions: for chromatographic logP: reversed phase HPLC columns
Method: In the above tables, measurement of LogP values was performed according to EEC directive 79/831 Annex V.A8 by HPLC (High Performance Liquid Chromatography) on reversed phase columns with the following methods: • ^[a]
Calibration was done with straight-chain alkan2-ones (with 3 to 16 carbon atoms) with known LogP values (measurement of LogP values using retention times with linear interpolation between successive alkanones). Lambda-max-values were determined using UV-spectra from 200 nm to 400 nm and the peak values of the chromatographic signals.

[3] = tested on: salicylate responsive promoter sequence of the PR1 (pathogenesis-related protein I) gene (AT2G14610); experiment: Induction of defense gene expression in Arabidopsis thaliana (PR1 promoter-GFP reporter plants); assay type: in vivo; conditions: 3rd day after spraying, mock treated leaves set as 1.00; for fold induction at 75 ppm / fold induction at 300 ppm: Arabidopsis thaliana, 72 h, read-out: relative fluorescence value; for fold induction at 75 ppm: 75 ppm of compound
Method: Arabidopsis thaliana reporter plants containing the coding sequence of a green fluorescent protein (GFP) linked to the salicylate responsive promoter sequence of the PR1 (pathogenesis-related protein I) gene (AT2G14610) were grown for five days and then sprayed with compounds. On the 3rd day after spraying, plant fluorescence was assessed with a MacroFluo instrument from Leica Microsystems (Wetzlar, Germany). Fluorescences were quantified with the Meta-Morph Microscopy Automation & Image Analysis Software (Molecular Devices, Sunnyvale, Calif., United States). Background fluorescence in mock treated leaves was set as 1.00.

[4] = tested on: Colletotrichum lindemuthianum; experiment: In vivo preventive test on Colletotrichum lindemuthianum (Antrachnose on bean); conditions: 144 h, inoculation 72 h after spraying, evaluated 6 days after inoculation, read-out: efficacy; for pest or weed control at 31 ppm: 31 ppm of active ingredient; for pest or weed control at 500 ppm: 500 ppm of active ingredient
Method: (§1) The tested active ingredients were prepared by homogenization in a mixture of acetone/Dimethyl sulfoxide/Tween®, and then diluted with water to obtain the desired active material concentration. The young plants of bean were treated by spraying the active ingredient prepared as described above. Control plants were treated only with an aqueous solution of acetone/Dimethyl sulfoxide/Tween®.
After 72 hours, the plants were contaminated by spraying the leaves with an aqueous suspension of Colletotrichum lindemuthianum spores. The contaminated bean plants were incubated for 24 hours at 20° C. and at 100% relative humidity and then for 5 days at 20° C. and at 90% relative humidity. The test was evaluated 6 days after the inoculation. 0% means an efficacy which corresponds to that of the control plants while an efficacy of 100% means that no disease was observed.
Compound CMP1 was tested in an in vivo preventive test on Colletotrichum lindemuthianum (Antrachnose on bean) in the same conditions as described in Example F.

[5] = tested on: Peronospora parasitica; experiment: In vivo preventive test on Peronospora parasitica (Crucifer downy mildew); conditions: cabbage, evaluated 5 days after inoculation; for pest or weed control at 31 ppm / pest or weed control at 125 ppm / pest or weed control at 500 ppm: Hyaloperonospora parasitica, in Brassica oleracea, 120 h, read-out: efficacy; for pest or weed control at 31 ppm: 31 ppm of active ingredient; for pest or weed control at 125 ppm: 125 ppm of active ingredient
Method: The tested active ingredients were prepared by homogenization in a mixture of acetone/Dimethyl sulfoxide/Tween®, and then diluted with water to obtain the desired active material concentration. The young plants of cabbage were treated by spraying the active ingredient prepared as described above. Control plants were treated only with an aqueous solution of acetone/Dimethyl sulfoxide/Tween®.
After 72 hours, the plants were contaminated by spraying the leaves with an aqueous suspension of Peronospora parasitica spores. The contaminated cabbage plants were incubated for 5 days at 20° C. and at 100% relative humidity.
The test was evaluated 5 days after the inoculation. 0% means an efficacy which corresponds to that of the control plants while an efficacy of 100% means that no disease was observed.
Compounds CMP2 and CMP3 were tested in an in vivo preventive test on Peronospora parasitica (Crucifer downy mildew) in the same conditions as described in Example G.

[6] = tested on: Uromyces appendiculatus; experiment: In vivo preventive test on Uromyces appendiculatus (bean rust); conditions: 240 h, evaluated 10 days after inoculation, read-out: efficacy; for pest or weed control at 125 ppm: 125 ppm of active ingredient; for pest or weed control at 500 ppm: 500 ppm of active ingredient
Method: as §1
After 72 hours, the plants were contaminated by spraying the leaves with an aqueous suspension of Uromyces appendiculatus spores. The contaminated bean plants were incubated for 24 hours at 20° C. and at 100% relative humidity and then for 9 days at 20° C. and at 70-80% relative humidity. The test was evaluated 10 days after the inoculation. 0% means an efficacy which corresponds to that of the control plants while an efficacy of 100% means that no disease was observed.
Compounds CMP5 and CMP6 were tested in an in vivo preventive test on Uromyces appendiculatus (bean rust) in the same conditions as described in Example I.

[7] = tested on: Pseudomonas syringae pv. tomato; experiment: In vivo preventive test on Pseudomonas syringae pv. tomato (bacterial speck on tomato); conditions: evaluated 5 or 6 days after inoculation, read-out: efficacy; for pest or weed control at 31 ppm: 31 ppm of active ingredient; for pest or weed control at 500 ppm: 500 ppm of active ingredient
Method: The tested active ingredients were prepared by homogenization in a mixture of acetone/Dimethyl sulfoxide/Tween®, and then diluted with water to obtain the desired active material concentration. The young plants of tomato were treated by spraying the active ingredient prepared as described above. Control plants were treated only with an aqueous solution of acetone/Dimethyl sulfoxide/Tween®.
After 72 hours, the plants were contaminated by spraying the leaves with an aqueous bacteria suspension of Pseudomonas syringae pv. tomato. The contaminated tomato plants were incubated for 4 days in saturated atmosphere at 22° C. day/20° C. night—70% HR and then for 1 or 2 days at 22° C. day/20° C. night at 70-80% relative humidity.
The test was evaluated 5 or 6 days after the inoculation. 0% means an efficacy which corresponds to that of the control plants while an efficacy of 100% means that no disease was observed.
Compounds CMP1 and CMP4 were tested in an in vivo preventive test on Pseudomonas syringae pv. tomato (bacterial speck on tomato) in the same conditions as described in Example J.

[8] = method [a]: LC-UV, in an acidic range, with 0.1% formic acid in water and acetonitrile as eluent (linear gradient from 10% to 95% acetonitrile)

CNC(=O)[C@@H](NC(=O)c1sc(Cl)c(Cl)c1Cl)C(C)C [I.096]
pest or weed control at 125 ppm [1]: 80 to 89%
chromatographic logP [2, 8]: 2.97

COC(=O)[C@H](C)NC(=S)c1sc(Cl)c(Cl)c1Cl [I.117]
fold induction at 75 ppm [3]: > 2
fold induction at 300 ppm ([3]; 300 ppm): > 2
pest or weed control at 31 ppm [4]: 70 to 79%
pest or weed control at 500 ppm [4]: 90 to 100%
pest or weed control at 31 ppm [5]: 90 to 100%
pest or weed control at 125 ppm [5]: 90 to 100%
pest or weed control at 500 ppm ([5]; 500 ppm of active ingredient): 90 to 100%
pest or weed control at 125 ppm [6]: 90 to 100%
pest or weed control at 500 ppm [6]: 90 to 100%
pest or weed control at 31 ppm [7]: 80 to 89%
pest or weed control at 500 ppm [7]: 80 to 89%
chromatographic logP [2, 8]: 4.62

CCOC(=O)[C@H](C)NC(=S)c1sc(Cl)c(Cl)c1Cl [I.118]
efficacy ([5]; 500 ppm of active ingredient): 70%
LogP [2]: 5.21^[a]

CC(C)[C@H](NC(=O)c1sc(Cl)c(Cl)c1Cl)C(=O)O [CMP5, reference compound]
pest or weed control at 8 ppm ([6]; 8 ppm): < 20%

COC(=O)[C@@H](NC(=O)c1sc(Cl)c(Cl)c1Cl)C(C)C [CMP4, reference compound]
pest or weed control at 125 ppm [1]: 0%
pest or weed control at 31 ppm [7]: 0%

CCSC(=O)[C@@H](NC(=O)c1sc(Cl)c(Cl)c1Cl)C(C)C [I.094]
fold induction at 300 ppm ([3]; 300 ppm): > 2
pest or weed control at 500 ppm ([5]; 500 ppm of active ingredient): 90 to 100%
pest or weed control at 500 ppm [6]: 90 to 100%
pest or weed control at 500 ppm [7]: 80 to 89%

CCOC(=O)C(C)N(C(=O)c1sc(Cl)c(Cl)c1Cl)C1CC1 (stereo not drawn) [I.110]
pest or weed control at 500 ppm ([5]; 500 ppm of active ingredient): 70 to 79%
pest or weed control at 31 ppm [1]: 70 to 79%
pest or weed control at 125 ppm [1]: 70 to 79%
pest or weed control at 125 ppm [6]: 70 to 79%
pest or weed control at 500 ppm [6]: 90 to 100%
chromatographic logP [2, 8]: 4.23

CCSC(=O)[C@H](C)NC(=O)c1sc(Cl)c(Cl)c1Cl [I.089]
fold induction at 75 ppm [3]: > 2
fold induction at 300 ppm ([3]; 300 ppm): > 2
pest or weed control at 500 ppm [4]: 90 to 100%
pest or weed control at 31 ppm [5]: 90 to 100%
pest or weed control at 125 ppm [5]: 90 to 100%
pest or weed control at 500 ppm ([5]; 500 ppm of active ingredient): 90 to 100%
pest or weed control at 125 ppm [6]: 90 to 100%
pest or weed control at 500 ppm [6]: 90 to 100%
pest or weed control at 31 ppm [7]: 90 to 100%
pest or weed control at 500 ppm [7]: 90 to 100%
chromatographic logP [2, 8]: 4.4

CNC(=O)[C@H](C)NC(=O)c1sc(Cl)c(Cl)c1Cl [I.091]
fold induction at 300 ppm ([3]; 300 ppm): > 2
pest or weed control at 500 ppm [4]: 70 to 79%
pest or weed control at 31 ppm [5]: 90 to 100%
pest or weed control at 125 ppm [5]: 90 to 100%
pest or weed control at 500 ppm ([5]; 500 ppm of active ingredient): 90 to 100%
pest or weed control at 125 ppm [6]: 80 to 89%
pest or weed control at 500 ppm [6]: 70 to 79%
chromatographic logP [2, 8]: 2.35

O=C(O)c1ccccc1O [Salicylic acid, reference compound]
relative fluorescence value ([3]; 300 ppm): 2.70

CCOC(=O)[C@@H](NC(=O)c1sc(Cl)c(Cl)c1Cl)C(C)C [CMP6, reference compound]
pest or weed control at 500 ppm [6]: < 40%

CCNC(=O)[C@H](C)NC(=O)c1sc(Cl)c(Cl)c1Cl [I.120]
fold induction at 75 ppm [3]: > 2
fold induction at 300 ppm ([3]; 300 ppm): > 2
pest or weed control at 31 ppm [4]: 70 to 79%
pest or weed control at 500 ppm [4]: 90 to 100%
pest or weed control at 31 ppm [5]: 90 to 100%
pest or weed control at 125 ppm [5]: 90 to 100%
pest or weed control at 500 ppm ([5]; 500 ppm of active ingredient): 90 to 100%
pest or weed control at 31 ppm [1]: 80 to 89%
pest or weed control at 125 ppm [6]: 90 to 100%
pest or weed control at 500 ppm [6]: 90 to 100%
chromatographic logP [2, 8]: 2.75

O=C(NC1(C(=O)O)CC1)c1sc(Cl)c(Cl)c1Cl [1-{[(3,4,5-trichloro-2-thienyl)carbonyl]amino}cyclopropanecarboxylic acid]
chromatographic logP ([2]; given in the preparation examples, method not marked): 2.39

CC(C)(C)OC(=O)C1(NC(=O)c2sc(Cl)c(Cl)c2Cl)CCC1 [I.097]
LogP [2]: 5.28^[a]

CN(C)C(=O)CNC(=O)c1sc(Cl)c(Cl)c1Cl [I.065]
LogP [2]: 2.47^[a]

CN(C)C(=S)C1(NC(=O)c2sc(Cl)c(Cl)c2Cl)CC1 [I.115]
LogP [2]: 3.20^[a]

CCOC(=O)C(CC1CC1)NC(=O)c1sc(Cl)c(Cl)c1Cl (stereo not drawn) [I.058]
LogP [2]: 4.81^[a]

COC(=O)C1(NC(=O)c2sc(Cl)c(Cl)c2Cl)CCOCC1 [I.071]
LogP [2]: 3.00^[a]

CCSC(=O)C(CC(C)C)NC(=O)c1sc(Cl)c(Cl)c1Cl (stereo not drawn) [I.039]
LogP [2]: 5.54^[a]

N#CNC(=O)CNC(=O)c1sc(Cl)c(Cl)c1Cl [I.106]
LogP [2]: 2.45^[a]
